Source: patent publication US8993565B2, “(6-oxo-1,6-dihydropyrimidin-2-yl)amide derivatives, preparation thereof and pharmaceutical use thereof as AKT(PKB) phosphorylation inhibitors” (Sanofi, priority 2009, dated 2015)

Key:
[1] = system: AKT protein phosphorylated on serine 473 (pAKT-S473); assay: Study of pAKT expression in PC3 human prostate carcinoma cells measured by western blotting (Test A); assay type: cell-based; conditions: PC-3, inhibition of AKT phosphorylation (pAKT-S473), 1 to 2 hours incubation, absolute IC50, mean of two experiments
Protocol: The inhibitory activity of the molecules on AKT phosphorylation is measured either by western blotting using the technique described below, or by the MSD Multi-spot Biomarker detection technique from Meso Scale Discovery also described below.
Study of pAKT Expression in PC3 Human Prostate Carcinoma Cells Measured by Western Blotting (Test A):
On day 2, the cells are incubated in the presence or absence of the test products for 1 to 2 hours at 37° C. in the presence of 5% CO2. The molecules, diluted in dimethyl sulphoxide (DMSO Sigma #D2650), are added from a 10-times concentrated stock solution, the final percentage of DMSO being 0.1%. The molecules are tested either at a single concentration of less than or equal to 10 μM, or at increasing concentrations in a range that can extend from less than 1 nM to 10 μM.
After this incubation, the cells are lysed for the preparation of the proteins.
The lysate is centrifuged for 10 min at 6000 rpm. 155 μl of supernatant are recovered. 150 μl are incubated for denaturation for 5 min at 95° C. in the presence of 4× NuPAGE LDS Sample Buffer diluted 4-fold (InVitrogen ref NP0007) and of 10× NuPAGE Sample Reducing Agent diluted 10-fold (InVitrogen ref NP0009). These samples are then frozen at −20° C.
The gel is then transferred on to an Invitrolon PVDF membrane (Invitrogen #LC2007) permeabilised beforehand and for a few seconds in ethanol (Ethanol Fischer Scientific #E/0600DF/15).
The transfer is carried out in a Biorad tank at 30 volts overnight or at 60 volts for 3 hours, in the presence of 20× NUPAGE Transfer Buffer diluted 20-fold (InVitrogen ref NP0006).
The membrane is then saturated in saturating solution composed of TBS (10× Tris Buffered Saline, Sigma #T5912, diluted 10-fold), 0.1% Tween (Sigma #P5927) and 3% BSA (Bovine Albumin Serum Fraction V, Sigma #A4503) for 6 h after overnight transfer or else for 1 h after transfer for a period of 3 h.
Two rinses for min in washing solution composed of TBS and 0.1% Tween 20 are carried out before hybridisation of the secondary antibodies.
The secondary antibodies are diluted 110000th for the rabbit anti-Mouse IgG HRP antibody (W402 Promega) and to 110000th for the goat anti-Rabbit IgG HRP antibody (W401 Promega) in saturating solution, and then shaken for 1 h at ambient temperature.
Two rinses for 30 min in washing solution are carried out and then a rinse for 5 min in H2O is carried out in order to eliminate the remaining Tween 20.
The luminescence is read with the FujiFilm device (Ray Test).
The FUJI device measures the total luminescence signal obtained (AU) for each band selected. It then subtracts the background noise (BG) proportional to the size of the band selected (Area), said background noise being calculated from a specific background noise band, with a view to obtaining the specific signal (AU-BG) for each band. The band obtained in the absence of product and in the presence of 0.1% DMSO is considered to be the 100% signal. The software calculates the % specific activity (Ratio) obtained for each band selected as a function of this 100% signal. The percentage inhibition is calculated for each concentration according to the formula (100%−Ratio).
Two independent experiments make it possible to calculate the mean of the percentages of inhibition obtained at a given concentration for the products tested only at one concentration.
Two independent experiments make it possible to calculate the mean of the IC50s.

[2] = system: AKT protein phosphorylated on serine 473 (P-AKT-S473); assay: Study of pAKT expression in PC3 human prostate carcinoma cells measured by the MSD Multi-spot Biomarker Detection technique (Test B); assay type: cell-based; conditions: PC-3, inhibition of AKT phosphorylation (P-AKT-S473), MSD sandwich immunoassay, 1 to 2 h incubation, absolute IC50, mean of 2 experiments
Procedure, shortened: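 Lysate P-AKT-S473 quantified by MSD electrochemiluminescent sandwich immunoassay; inhibition vs DMSO and cell-free background, IC50 averaged over 2 experiments.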

SMILES	IC50 [1] [nM]	IC50 [2] [nM]
O=C(Cc1nc(N2CCOCC2)cc(=O)[nH]1)Nc1cccc(F)c1 [Example 14, N-(3-fluorophenyl)-2-[4-(morpholin-4-yl)-6-oxo-1,6-dihydropyrimidin-2-yl]acetamide]	570	74
O=C(Cc1nc(N2CCOCC2)cc(=O)[nH]1)Nc1ccc(F)c(Cl)c1 [Example 29, N-(3-chloro-4-fluorophenyl)-2-[4-(morpholin-4-yl)-6-oxo-1,6-dihydropyrimidin-2-yl]acetamide]	116	–
O=C(Cc1nc(N2CCOCC2)cc(=O)[nH]1)Nc1cccc(O)c1 [Example 32, N-(3-hydroxyphenyl)-2-[4-(morpholin-4-yl)-6-oxo-1,6-dihydropyrimidin-2-yl]acetamide]	3640	–
O=C(Cc1nc(N2CCOCC2)cc(=O)[nH]1)Nc1ccc(F)c(Br)c1 [Example 33, N-(3-bromo-4-fluorophenyl)-2-[4-(morpholin-4-yl)-6-oxo-1,6-dihydropyrimidin-2-yl]acetamide]	93	–
O=C(Cc1nc(N2CCOCC2)cc(=O)[nH]1)Nc1cc(F)c(F)c(F)c1 [Example 34, 2-[4-(morpholin-4-yl)-6-oxo-1,6-dihydropyrimidin-2-yl]-N-(3,4,5-trifluorophenyl)acetamide]	609	–
O=C(Cc1nc(N2CCOCC2)cc(=O)[nH]1)Nc1cccc(OC(F)F)c1 [Example 38, N-[3-(difluoromethoxy)phenyl]-2-[4-(morpholin-4-yl)-6-oxo-1,6-dihydropyrimidin-2-yl]acetamide]	480	–
COc1cc(NC(=O)C(C)c2nc(N3CCOCC3)cc(=O)[nH]2)ccc1F (stereo not shown) [Example 39, N-(4-fluoro-3-methoxyphenyl)-2-[4-(morpholin-4-yl)-6-oxo-1,6-dihydropyrimidin-2-yl]propanamide]	1760	–
Cc1cccc(NC(=O)Cc2nc(N3CCOCC3)cc(=O)[nH]2)c1C [Example 40, N-(2,3-dimethylphenyl)-2-[4-(morpholin-4-yl)-6-oxo-1,6-dihydropyrimidin-2-yl]acetamide]	1490	–
Cc1cccc(NC(=O)Cc2nc(N3CCOCC3)cc(=O)[nH]2)c1F [Example 41, N-(2-fluoro-3-methylphenyl)-2-[4-(morpholin-4-yl)-6-oxo-1,6-dihydropyrimidin-2-yl]acetamide]	290	60
O=C(Cc1nc(N2CCOCC2)cc(=O)[nH]1)Nc1cccc2ocnc12 [Example 42, N-(1,3-benzoxazol-4-yl)-2-[4-(morpholin-4-yl)-6-oxo-1,6-dihydropyrimidin-2-yl]acetamide]	400	148
O=C(Cc1nc(N2CCOCC2)cc(=O)[nH]1)Nc1cccc(OC(F)(F)F)c1 [Example 43, 2-[4-(morpholin-4-yl)-6-oxo-1,6-dihydropyrimidin-2-yl]-N-[3-(trifluoromethoxy)phenyl]acetamide]	549	–
CC(C)Oc1cccc(NC(=O)Cc2nc(N3CCOCC3)cc(=O)[nH]2)c1 [Example 44, 2-[4-(morpholin-4-yl)-6-oxo-1,6-dihydropyrimidin-2-yl]-N-[3-(propan-2-yloxy)phenyl]acetamide]	308	–
COc1cc(F)ccc1NC(=O)Cc1nc(N2CCOCC2)cc(=O)[nH]1 [Example 45, N-(4-fluoro-2-methoxyphenyl)-2-[4-(morpholin-4-yl)-6-oxo-1,6-dihydropyrimidin-2-yl]acetamide]	261	–
O=C(Cc1nc(N2CCOCC2)cc(=O)[nH]1)Nc1ccc(F)c(C(F)(F)F)c1 [Example 47, N-[4-fluoro-3-(trifluoromethyl)phenyl]-2-[4-(morpholin-4-yl)-6-oxo-1,6-dihydropyrimidin-2-yl]acetamide]	346	–
C#Cc1cccc(NC(=O)Cc2nc(N3CCOCC3)cc(=O)[nH]2)c1 [Example 48, N-(3-ethynylphenyl)-2-[4-(morpholin-4-yl)-6-oxo-1,6-dihydropyrimidin-2-yl]acetamide]	184	–
O=C(Cc1nc(N2CCOCC2)cc(=O)[nH]1)Nc1ccc(F)cc1O [Example 50, N-(4-fluoro-2-hydroxyphenyl)-2-[4-(morpholin-4-yl)-6-oxo-1,6-dihydropyrimidin-2-yl]acetamide]	6720	–
O=C(Cc1nc(N2CCOCC2)cc(=O)[nH]1)N1CCc2ccccc21 [Example 51, 2-[2-(2,3-dihydro-1 H-indol-1-yl)-2-oxoethyl]-6-(morpholin-4-yl)pyrimidin-4(3H)-one]	133	–
O=C(Cc1nc(N2CCOCC2)cc(=O)[nH]1)Nc1ccc(F)c(C2CC2)c1 [Example 52, N-(3-cyclopropyle-4-fluorophenyl)-2-[4-(morpholin-4-yl)-6-oxo-1,6-dihydropyrimidin-2-yl]acetamide]	227	–
O=C(Cc1nc(N2CCOCC2)cc(=O)[nH]1)Nc1ccc(F)c(OC(F)(F)F)c1 [Example 54, N-[4-fluoro-3-(trifluoromethoxy)phenyl]-2-[4-(morpholin-4-yl)-6-oxo-1,6-dihydropyrimidin-2-yl]acetamide]	807	67
O=C(Cc1nc(N2CCOCC2)cc(=O)[nH]1)Nc1cccc(OCCO)c1 [Example 55, N-[3-(2-hydroxyethoxy)phenyl]-2-[4-(morpholin-4-yl)-6-oxo-1,6-dihydropyrimidin-2-yl]acetamide]	10000	–
O=C(Cc1nc(N2CCOCC2)cc(=O)[nH]1)Nc1cccc(I)c1 [Example 56, N-(3-iodophenyl)-2-[4-(morpholin-4-yl)-6-oxo-1,6-dihydropyrimidin-2-yl]acetamide]	137	–
COC(=O)c1cc(NC(=O)Cc2nc(N3CCOCC3)cc(=O)[nH]2)ccc1F [Example 57, methyl 2-fluoro-5-({[4-(morpholin-4-yl)-6-oxo-1,6-dihydropyrimidin-2-yl]acetyl}amino)benzoate]	5860	–
CCOc1cccc(NC(=O)Cc2nc(N3CCOCC3)cc(=O)[nH]2)c1 [Example 58, N-(3-ethoxyphenyl)-2-[4-(morpholin-4-yl)-6-oxo-1,6-dihydropyrimidin-2-yl]acetamide]	760	71
O=C(Cc1nc(N2CCOCC2)cc(=O)[nH]1)N1CCOc2ccccc21 [Example 62, 2-[2-(2,3-dihydro-4H-1,4-benzoxazin-4-yl)-2-oxoethyl]-6-(morpholin-4-yl)pyrimidin-4(3H)-one]	530	–
O=C(Cc1nc(N2CCOCC2)cc(=O)[nH]1)Nc1ccc(F)c([N+](=O)[O-])c1 [Example 63, N-(4-fluoro-3-nitrophenyl)-2-[4-(morpholin-4-yl)-6-oxo-1,6-dihydropyrimidin-2-yl]acetamide]	6160	–
O=C(Cc1nc(N2CCOCC2)cc(=O)[nH]1)Nc1cc(F)ccc1O [Example 65, N-(5-fluoro-2-hydroxyphenyl)-2-[4-(morpholin-4-yl)-6-oxo-1,6-dihydropyrimidin-2-yl]acetamide]	6460	–
Cn1c(CC(=O)Nc2ccc(F)cc2)nc(N2CCOCC2)cc1=O [Example 67, N-(4-fluorophenyl)-2-[1-methyl-4-(morpholin-4-yl)-6-oxo-1,6-dihydropyrimidin-2-yl]acetamide]	2210	–
Cn1c(CC(=O)Nc2ccc(F)c(Cl)c2)nc(N2CCOCC2)cc1=O [Example 68, N-(3-chloro-4-fluorophenyl)-2-[1-methyl-4-(morpholin-4-yl)-6-oxo-1,6-dihydropyrimidin-2-yl]acetamide]	202	79
